# Tests used:
# [1] = normally, in man; cited from earlier work
# male C3HeB/FeJ mice = assay: Toxicity in mice: acetaminophen-induced liver injury, plasma ALT activity; assay type: in vivo; settings: fasted mice; for protection of the liver against acetaminophen damage (maximal ALT elevation): cimetidine 20% and/or methionine 30% of the acetaminophen dose
# Protocol: This example is performed as described in Saito, Hepatology, 51(1):246, 2010, which is incorporated by reference herein.
# At selected times after acetaminophen treatment, groups of animals are killed by way of cervical dislocation under anesthesia. Blood is drawn from the vena cava into heparinized syringes and centrifuged. The plasma is used for determination of alanine aminotransferase (ALT) activities. Plasma ALT activities are determined and expressed as international units per liter.
# After establishing the model in the pilot phase, five experimental groups are studied. The groups receive vehicles containing the ingredients noted in Table B. If the methionine or cimetidine is ineffective or is fully protective, the doses are adjusted and the experiment repeated until the relative contribution of each relative to the combination is determined.
# The outcome is maximal ALT elevation. Data are expressed as the mean±standard error. Comparison between groups is performed analysis of variance, or alternative non-parametric procedures if the data is not normally distributed. P<0.05 is considered significant.
# volunteers = settings: human volunteers, given with acetaminophen 4 grams a day
# Text: All subjects participate in an initial multiple dose study of 1 gram of acetaminophen given four times a day (four grams a day), protected by twice a day transaminase determinations. […] Subjects with no elevation are terminated from the study. Subjects rest for three weeks after the first phase and then return for the second phase.
# Subjects dose at 4 grams of acetaminophen a day. They have twice daily blood samples for serum transaminases, and proceed to the next day's dosing only if their most recent transaminase values are no more than 3 times the upper limit of normal.
# The outcome variable is maximal transaminase elevations for each subject relative to baseline tested by ANOVA for each formulation. The test article is hepato-protective if there is a significant (P<0.05) difference in outcome for the formulation.
# Subjects with transaminase elevations are followed at intervals to ensure that their values return to normal.
Compound,ingested dose metabolized to the non-toxic sulfate or glucuronide [1],"liver injury (maximal ALT elevation) (male C3HeB/FeJ mice; acetaminophen alone, intraperitoneal single dose)",protection of the liver against acetaminophen damage (maximal ALT elevation) (male C3HeB/FeJ mice),serious adverse effects (volunteers)
"CC(=O)Nc1ccc(O)cc1 [acetaminophen, N-acetyl-p-aminophenol]",96%,causes liver injury,–,–
CN/C(=N/CCSCc1nc[nH]c1C)NC#N [cimetidine],–,–,protected against damage,no additional serious adverse effects
CSCC[C@H](N)C(=O)O [methionine],–,–,protected against damage,no additional serious adverse effects

# From US20170246194A1, “Acetaminophen-Containing Analgesic Formulations With Reduced Hepatotoxicity” (Purdue Pharma L.P., priority 2014, published 2017)
